Like-named read-outs stand apart in the source and are kept apart here.
Legend:
HRAS wild-type protein = HRAS wild-type protein (Homo sapiens, UniProt P01112); assay: Binding to HRAS by surface plasmon resonance (SPR), KD and KD ratio to KRAS
In short: (§1)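 Running buffer contained 10 µM GDP and 10 mM MgCl2 to keep RAS in the GDP state, with 4% DMSO at pH 7.4. Compounds were flowed at 100 µL/min in 75 s steps of rising concentration over captured biotin-Avi RAS at 30°C. Sensorgrams were fitted 1:1 for KD.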

[1] = system: human lung cancer strain NCI-H441; assay: NCI-H441 cell proliferation inhibitory activity (CellTiter-Glo, 4 days); assay type: cell-based; settings: read-out: NCl-H441 IC50
In short: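 Step one: dispense the test compound in serial DMSO dilutions. Step three: add the reagent and measure […].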

[2] = molecular target: GDP-bound KRAS wild-type protein (Homo sapiens, UniProt P01116); assay: Binding to KRAS by surface plasmon resonance (SPR), dissociation constant KD
GDP-bound KRAS wild-type protein, sequence (P01116 1-188 isoform P01116-2): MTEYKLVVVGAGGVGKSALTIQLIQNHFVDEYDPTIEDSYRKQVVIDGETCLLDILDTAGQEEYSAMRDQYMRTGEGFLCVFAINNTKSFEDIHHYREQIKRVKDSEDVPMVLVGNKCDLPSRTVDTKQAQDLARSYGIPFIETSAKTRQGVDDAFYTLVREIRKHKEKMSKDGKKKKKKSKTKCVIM
In short: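 SPR, 30°C: Avi-biotin RAS·GDP captured via Biotin CAPture (~100–300 RU); running buffer HBS pH 7.4, 1 mM DTT, 10 mM MgCl2, 0.01% Tween 20, 10 µM GDP, 4% DMSO. Single-cycle kinetics, 100 µL/min, 75 s injections; 1:1 model → KD.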

[3] = molecular target: GDP-bound NRAS wild-type protein (Homo sapiens, UniProt P01111); assay: Binding to NRAS by surface plasmon resonance (SPR), KD and KD ratio to KRAS
GDP-bound NRAS wild-type protein, sequence (P01111 whole entry): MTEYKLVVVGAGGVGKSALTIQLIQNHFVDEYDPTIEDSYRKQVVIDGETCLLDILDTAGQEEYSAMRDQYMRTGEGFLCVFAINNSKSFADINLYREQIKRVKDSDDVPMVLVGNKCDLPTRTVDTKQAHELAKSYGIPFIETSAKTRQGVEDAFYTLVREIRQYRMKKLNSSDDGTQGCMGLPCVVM
In short: as §1

[4] = ratio of KD for HRAS wild-type protein to KD for KRAS
[5] = ratio of KD for GDP-bound NRAS wild-type protein to KD for KRAS
[6] = ratio of KD with respect to HRAS wild-type protein to KD with respect to KRAS
[7] = 50% proliferation inhibitory concentration, four days
[8] = Single Cycle Kinetics, 1:1 binding model
[9] = ratio of KD with respect to GDP-bound NRAS wild-type protein to KD with respect to KRAS

HRAS wild-type protein, sequence (P01112 whole entry): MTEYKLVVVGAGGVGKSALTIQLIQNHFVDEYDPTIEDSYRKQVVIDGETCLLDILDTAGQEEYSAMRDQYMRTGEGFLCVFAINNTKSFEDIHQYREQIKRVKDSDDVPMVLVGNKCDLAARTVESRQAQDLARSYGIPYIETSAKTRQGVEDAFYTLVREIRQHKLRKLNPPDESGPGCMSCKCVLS

IC50 ([1]; NCI-H441 cells, 4 days) [nM]	Kd ([2]; Single Cycle Kinetics) [nM]	IC50 [1, 7] [nM]	Kd [2, 8] [nM]	Kd ([2]; 1:1 binding model) [nM]	Compound	HRAS /KRAS (HRAS wild-type protein; [4])	NRAS /KRAS [3, 5]	HRAS /KRAS (HRAS wild-type protein; [6])	NRAS /KRAS [3, 9]
7.9	0.063				CCC[C@H]1C(=O)N[C@@H](C2CCCC2)C(=O)N(C)CC(=O)N(C)[C@H]2C/C=C\CCN(C2=O)[C@@H](Cc2ccc(C)cc2)C(=O)N(C)CC(=O)N[C@@H](CCc2ccc(C(F)(F)F)c(Cl)c2)C(=O)N2CC3(CC3)C[C@H]2C(=O)N(C)C2(CCC2)C(=O)N(C)[C@@H](C2CCCC2)C(=O)N(C)[C@H](C(=O)N(C)C)CC(=O)N1C [PP3322]	B (a compound having 3 or more and less than 10 is denoted as B)	A (a compound having 10 or more and less than 20 is denoted as A)		
		20	0.06		CC[C@H](C)[C@@H]1NC(=O)[C@H](CC)N(C)C(=O)C[C@@H](C(=O)N(C)C)N(C)C(=O)[C@H](C2CCCC2)N(C)C(=O)C2(CCC2)NC(=O)[C@@H]2C[C@H](C)CN2C(=O)[C@H](CCc2cc(F)c(C(F)(F)F)c(F)c2)NC(=O)CN(C)C(=O)[C@H](Cc2ccc(C(F)(F)F)cc2)N2CC/C=C\C[C@@H](C2=O)N(C)C(=O)CN(C)C1=O [PP1134]			B (a compound having 3 or more and less than 10 is denoted as B)	A (a compound having 10 or more and less than 20 is denoted as A)
		87.6	0.7		CCO[C@@H]1C[C@H]2C(=O)NC3(CCCC3)C(=O)N(C)[C@@H](C(CC)CC)C(=O)N(C)[C@H](C(=O)N3CCCC3)CC(=O)N(C)[C@@H](COC)C(=O)N[C@@H]([C@@H](C)CC)C(=O)N(C)CC(=O)N(C)[C@H]3C/C=C\CCN(C3=O)[C@@H](CC3CCC(F)(F)CC3)C(=O)N(C)CC(=O)N[C@@H](CCc3cc(F)c(C(F)(F)F)c(F)c3)C(=O)N2C1 [PP1441]			A (a compound having 10 or more and less than 20 is denoted as A)	A (a compound having 10 or more and less than 20 is denoted as A)
		3.5	0.037		CCO[C@@H]1C[C@H]2C(=O)NC3(CCCC3)C(=O)N(C)[C@@H](C3CCCC3)C(=O)N(C)[C@H](C(=O)N(C)C)CC(=O)N(C)[C@@H](CC)C(=O)N[C@@H]([C@@H](C)CC)C(=O)N(C)CC(=O)N(C)[C@H]3CC[C@@H](C)CN(C3=O)[C@@H](Cc3ccc(C(F)(F)F)cc3)C(=O)N(C)CC(=O)N[C@@H](CCc3ccc(C(F)(F)F)c(Cl)c3)C(=O)N2C1 [PP1376]			B (a compound having 3 or more and less than 10 is denoted as B)	B (a compound having 3 or more and less than 10 is denoted as B)
80.2				1.2	CCC(CC)[C@H]1C(=O)N(C)[C@H](C(=O)N(C)C)CC(=O)N(C)[C@@H](COC)C(=O)N[C@@H]([C@@H](C)CC)C(=O)N(C)CC(=O)N(C)[C@H]2C/C=C\CCN(C2=O)[C@@H](CC2CCC(F)(F)CC2)C(=O)N(C)CC(=O)N[C@@H](CCc2ccc(C(F)(F)F)c(Cl)c2)C(=O)N2C[C@@H](C)C[C@H]2C(=O)NC2(CC(C)(C)C2)C(=O)N1C [PP2454]	A (a compound having 10 or more and less than 20 is denoted as A)	AA (a compound having 20 or more is denoted as AA)		
		6.4	0.046		CCO[C@@H]1C[C@H]2C(=O)NC3(CCC3)C(=O)N(C)[C@@H](C3CCCC3)C(=O)N(C)[C@H](C(=O)N(C)C)CC(=O)N(C)[C@@H](CC3CC3)C(=O)N[C@@H]([C@@H](C)CC)C(=O)N(C)CC(=O)N(C)[C@H]3C/C=C\CCN(C3=O)[C@@H](Cc3ccc(C(F)(F)F)cc3)C(=O)N(C)CC(=O)N[C@@H](CCc3ccc(C(F)(F)F)c(OC)c3)C(=O)N2C1 [PP1247]			A (a compound having 10 or more and less than 20 is denoted as A)	A (a compound having 10 or more and less than 20 is denoted as A)
		36.6	0.19		CCO[C@@H]1C[C@H]2C(=O)NC3(CCCC3)C(=O)N(C)[C@@H](C3CCCC3)C(=O)N(C)[C@H](C(=O)N(C)C)CC(=O)N(C)[C@@H](CC(C)C)C(=O)N[C@@H]([C@@H](C)CC)C(=O)N(C)CC(=O)N(C)[C@H]3C/C=C\CCN(C3=O)[C@@H](CC3CCCCC3)C(=O)N(C)CC(=O)N[C@@H](CCc3cc(F)c(C(F)(F)F)c(F)c3)C(=O)N2C1 [PP1473]			A (a compound having 10 or more and less than 20 is denoted as A)	A (a compound having 10 or more and less than 20 is denoted as A)
9.4				0.21	CCC[C@H]1C(=O)N[C@@H]([C@@H](C)CC)C(=O)N2C[C@@H](OC)C[C@H]2C(=O)N(C)[C@H]2C/C=C\CCN(C2=O)[C@@H](Cc2ccc(C)cc2)C(=O)N(C)CC(=O)N[C@@H](CCc2cc(F)c(C(F)(F)F)c(F)c2)C(=O)N2C[C@H](OCC)C[C@H]2C(=O)NC2(CC(C)(C)C2)C(=O)N(C)[C@@H](C2CCCC2)C(=O)N(C)[C@H](C(=O)N(C)C)CC(=O)N1C [PP2556]	B (a compound having 3 or more and less than 10 is denoted as B)	A (a compound having 10 or more and less than 20 is denoted as A)		
		271	1.6		CCO[C@@H]1C[C@H]2C(=O)NC3(CCC3)C(=O)N(C)[C@@H](C3CCCC3)C(=O)N(C)[C@H](C(=O)N3CCCC3)CC(=O)N(C)[C@@H](CC3CCCC3)C(=O)N[C@@H]([C@@H](C)CC)C(=O)N(C)CC(=O)N(C)[C@H]3C/C=C\CCN(C3=O)[C@@H](Cc3ccc(F)cc3)C(=O)N(C)CC(=O)N[C@@H](CCc3ccc4sccc4c3)C(=O)N2C1 [PP1391]			A (a compound having 10 or more and less than 20 is denoted as A)	A (a compound having 10 or more and less than 20 is denoted as A)
2.3	0.024				C#CC[C@H]1C(=O)N[C@@H]([C@@H](C)CC)C(=O)N(C)CC(=O)N(C)[C@H]2C/C=C\CCN(C2=O)[C@@H](Cc2ccc(C)cc2)C(=O)N(C)CC(=O)N[C@@H](CCc2ccc(C(F)(F)F)c(Cl)c2)C(=O)N2C[C@H](OCC)C[C@H]2C(=O)N(C)C2(CCC2)C(=O)N(C)[C@@H](C2CCCC2)C(=O)N(C)[C@H](C(=O)N(C)C)CC(=O)N1C [PP3240]	A (a compound having 10 or more and less than 20 is denoted as A)	A (a compound having 10 or more and less than 20 is denoted as A)		
7.6				0.33	CCC[C@H]1C(=O)N[C@@H]([C@@H](C)CC)C(=O)N(C2CC2)CC(=O)N(C)[C@H]2C/C=C\CCN(C2=O)[C@@H](Cc2ccc(C)cc2)C(=O)N(C)CC(=O)N[C@@H](CCc2cc(F)c(C(F)(F)F)c(F)c2)C(=O)N2C[C@H](OCC)C[C@H]2C(=O)NC2(CC(C)(C)C2)C(=O)N(C)[C@@H](CC(C)(C)C)C(=O)N(C)[C@H](C(=O)N(C)C)CC(=O)N1C [PP2718]	A (a compound having 10 or more and less than 20 is denoted as A)	A (a compound having 10 or more and less than 20 is denoted as A)		
11.6	1.3				CCO[C@@H]1C[C@H]2C(=O)OC3(CCC3)C(=O)N(C)[C@@H](C3CCCC3)C(=O)N(C)[C@H](C(=O)N(C)C)CC(=O)N(C)[C@@H]([C@H](C)OC)C(=O)N[C@@H]([C@@H](C)CC)C(=O)N(C3CC3)CC(=O)N(C)[C@H]3C/C=C\CCN(C3=O)[C@@H](Cc3ccc(C(F)(F)F)cc3)C(=O)N(C)CC(=O)N[C@@H](CCc3ccc(C(F)(F)F)c(OC)c3)C(=O)N2C1 [PP3378]	A (a compound having 10 or more and less than 20 is denoted as A)	A (a compound having 10 or more and less than 20 is denoted as A)		
4.1				0.045	CCC[C@H]1C(=O)N[C@@H]([C@@H](C)CC)C(=O)N2CCC[C@H]2C(=O)N(C)[C@H]2C/C=C\CCN(C2=O)[C@@H](Cc2ccc(C)cc2)C(=O)N(C)CC(=O)N[C@@H](CCc2ccc(C(F)(F)F)c(OC)c2)C(=O)N2C[C@@H](C)C[C@H]2C(=O)N(C)C2(CCC2)C(=O)N(C)[C@@H](C2CCCC2)C(=O)N(C)[C@H](C(=O)N(C)C)CC(=O)N1C [PP2368]	A (a compound having 10 or more and less than 20 is denoted as A)	A (a compound having 10 or more and less than 20 is denoted as A)		
69.5				1.4	CC[C@H](C)[C@@H]1NC(=O)[C@H](COC)N(C)C(=O)C[C@@H](C(=O)N(C)C)N(C)C(=O)[C@H](C2CCCC2)N(C)C(=O)C2(CC(C)(C)C2)NC(=O)[C@@H]2C[C@@H](OC3CCC3)CN2C(=O)[C@H](CCc2cc(F)c(C(F)(F)F)c(F)c2)NC(=O)CN(C)C(=O)[C@H](CC2CCCCC2)N2CC/C=C\C[C@@H](C2=O)N(C)C(=O)CN(C2CC2)C1=O [PP2618]	A (a compound having 10 or more and less than 20 is denoted as A)	A (a compound having 10 or more and less than 20 is denoted as A)		
4.7				0.051	CCOC[C@H]1C(=O)N[C@@H]([C@@H](C)CC)C(=O)N(C)CC(=O)N(C)[C@H]2C/C=C\CCN(C2=O)[C@@H](Cc2ccc(C)cc2)C(=O)N(C)CC(=O)N[C@@H](CCc2cc(F)c(C(F)(F)F)c(F)c2)C(=O)N2C[C@H](OCC)C[C@H]2C(=O)NC2(CC(C)(C)C2)C(=O)N(C)[C@@H](C2CCCC2)C(=O)N(C)[C@H](C(=O)N(C)C)CC(=O)N1C [PP2397]	A (a compound having 10 or more and less than 20 is denoted as A)	A (a compound having 10 or more and less than 20 is denoted as A)		
